# From PubChem BioAssay AID248 (DTP/NCI, 2004)
# “And” between values parts separate entries of the source, which are not always exact repeats. Equal values may be shown once. Toxic doses and inconclusive results are not listed.
# System: L1210 leukemia ip in BDF1 mice, survival T/C
# Assay: NCI In Vivo Anticancer Drug Screen. Data for tumor model L1210 Leukemia (intraperitoneal) in B6D2F1 (BDF1) mice
# Conditions: endpoint: mean survival time, higher = longer survival
# Method in brief: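 Ratio derived from survival: compound-dosed mice over vehicle-dosed mice, all bearing a transplantable tumor.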
compound,measurement,setting,value
COC(C(=O)C(O)C(C)O)C1Cc2cc3cc(OC4CC(OC(C)=O)C(OC5CC(O)C(OC)C(C)O5)C(C)O4)cc(O)c3c(O)c2C(=O)C1OC1CC(OC2CC(OC3CC(C)(O)C(OC(=O)C(C)C)C(C)O3)C(O)C(C)O2)C(O)C(C)O1 (stereo not drawn),T/C,"dose: 0.09 mg/kg/injection, schedule: Q01DX017 (ip), vehicle: carboxymethylcellulose (CMC)",97 % of control
same,T/C,"dose: 0.18 mg/kg/injection, schedule: Q01DX017 (ip), vehicle: carboxymethylcellulose (CMC)",109 % of control
same,T/C,"dose: 0.18 mg/kg/injection, schedule: Q## X005 (ip), vehicle: carboxymethylcellulose (CMC)",98 % of control
same,T/C,"dose: 0.2 mg/kg/injection, schedule: Q01DX015 (ip), vehicle: carboxymethylcellulose (CMC)",102 % of control
same,T/C,"dose: 0.24 mg/kg/injection, schedule: Q## X024 (ip), vehicle: carboxymethylcellulose (CMC)",92 % of control
same,T/C,"dose: 0.25 mg/kg/injection, schedule: Q01DX009 (ip), vehicle: other",103 % of control
same,T/C,"dose: 0.25 mg/kg/injection, schedule: Q## X003 (ip), vehicle: carboxymethylcellulose (CMC)",94 % of control
same,T/C,"dose: 0.25 mg/kg/injection, schedule: Q#A X034 (ip), vehicle: carboxymethylcellulose (CMC)",119 % of control
same,T/C,"dose: 0.37 mg/kg/injection, schedule: Q01DX001 (ip), vehicle: carboxymethylcellulose (CMC)",101 % of control
same,T/C,"dose: 0.37 mg/kg/injection, schedule: Q01DX010 (ip), vehicle: saline",116 % of control
same,T/C,"dose: 0.37 mg/kg/injection, schedule: Q02DX005 (ip), vehicle: saline",101 % of control
same,T/C,"dose: 0.37 mg/kg/injection, schedule: Q02DX009 (ip), vehicle: carboxymethylcellulose (CMC)",121 % of control
same,T/C,"dose: 0.37 mg/kg/injection, schedule: Q## X003 (ip), vehicle: saline",98 % of control
same,T/C,"dose: 0.37 mg/kg/injection, schedule: Q## X005 (ip), vehicle: carboxymethylcellulose (CMC)",107 % of control
same,T/C,"dose: 0.4 mg/kg/injection, schedule: Q01DX015 (ip), vehicle: carboxymethylcellulose (CMC)",120 % of control
same,T/C,"dose: 0.48 mg/kg/injection, schedule: Q## X024 (ip), vehicle: carboxymethylcellulose (CMC)",89 % of control
same,T/C,"dose: 0.5 mg/kg/injection, schedule: Q01DX001 (ip), vehicle: saline",103 % of control
same,T/C,"dose: 0.5 mg/kg/injection, schedule: Q01DX005 (ip), vehicle: carboxymethylcellulose (CMC)",106 % of control
same,T/C,"dose: 0.5 mg/kg/injection, schedule: Q01DX006 (iv), vehicle: carboxymethylcellulose (CMC)",104 % of control
same,T/C,"dose: 0.5 mg/kg/injection, schedule: Q01DX009 (ip), vehicle: carboxymethylcellulose (CMC)",113 % of control
same,T/C,"dose: 0.5 mg/kg/injection, schedule: Q01DX009 (ip), vehicle: other",122 % of control
same,T/C,"dose: 0.5 mg/kg/injection, schedule: Q01DX015 (im), vehicle: carboxymethylcellulose (CMC)",97 % of control
same,T/C,"dose: 0.5 mg/kg/injection, schedule: Q01DX015 (sc), vehicle: carboxymethylcellulose (CMC)",95 % of control
same,T/C,"dose: 0.5 mg/kg/injection, schedule: Q01DX Z (ip), vehicle: saline",123 % of control
same,T/C,"dose: 0.5 mg/kg/injection, schedule: Q## X003 (ip), vehicle: carboxymethylcellulose (CMC)",93 % of control
same,T/C,"dose: 0.75 mg/kg/injection, schedule: Q01DX001 (ip), vehicle: carboxymethylcellulose (CMC)",106 % of control
same,T/C,"dose: 0.75 mg/kg/injection, schedule: Q02DX005 (ip), vehicle: saline",116 % of control
same,T/C,"dose: 0.75 mg/kg/injection, schedule: Q## X003 (ip), vehicle: saline",105 % of control
same,T/C,"dose: 0.75 mg/kg/injection, schedule: Q## X005 (ip), vehicle: carboxymethylcellulose (CMC)",117 % of control
same,T/C,"dose: 1.0 mg/kg/injection, schedule: Q01DX001 (ip), vehicle: other",94 % of control
same,T/C,"dose: 1.0 mg/kg/injection, schedule: Q01DX001 (ip), vehicle: saline",114 % of control and 115 % of control
same,T/C,"dose: 1.0 mg/kg/injection, schedule: Q01DX005 (ip), vehicle: carboxymethylcellulose (CMC)",110 % of control
same,T/C,"dose: 1.0 mg/kg/injection, schedule: Q01DX006 (iv), vehicle: carboxymethylcellulose (CMC)",96 % of control
same,T/C,"dose: 1.0 mg/kg/injection, schedule: Q01DX009 (ip), vehicle: carboxymethylcellulose (CMC)",116 % of control
same,T/C,"dose: 1.0 mg/kg/injection, schedule: Q01DX009 (ip), vehicle: other",114 % of control
same,T/C,"dose: 1.0 mg/kg/injection, schedule: Q01DX015 (im), vehicle: carboxymethylcellulose (CMC)",101 % of control
same,T/C,"dose: 1.0 mg/kg/injection, schedule: Q01DX015 (sc), vehicle: carboxymethylcellulose (CMC)",105 % of control
same,T/C,"dose: 1.0 mg/kg/injection, schedule: Q01DX017 (ip), vehicle: carboxymethylcellulose (CMC)",163 % of control
same,T/C,"dose: 1.0 mg/kg/injection, schedule: Q01DX Z (ip), vehicle: saline",115 % of control
same,T/C,"dose: 1.0 mg/kg/injection, schedule: Q02DX009 (ip), vehicle: carboxymethylcellulose (CMC)",154 % of control
same,T/C,"dose: 1.0 mg/kg/injection, schedule: Q## X002 (ip), vehicle: carboxymethylcellulose (CMC)",88 % of control
same,T/C,"dose: 1.0 mg/kg/injection, schedule: Q## X003 (ip), vehicle: carboxymethylcellulose (CMC)",95 % of control
same,T/C,"dose: 1.0 mg/kg/injection, schedule: Q## X008 (ip), vehicle: carboxymethylcellulose (CMC)",88 % of control
same,T/C,"dose: 1.0 mg/kg/injection, schedule: Q## X024 (ip), vehicle: carboxymethylcellulose (CMC)",93 % of control
same,T/C,"dose: 1.0 mg/kg/injection, schedule: Q#A X034 (ip), vehicle: carboxymethylcellulose (CMC)",170 % of control
same,T/C,"dose: 1.5 mg/kg/injection, schedule: Q01DX001 (ip), vehicle: carboxymethylcellulose (CMC)",117 % of control
same,T/C,"dose: 1.5 mg/kg/injection, schedule: Q01DX001 (ip), vehicle: saline",114 % of control
same,T/C,"dose: 1.5 mg/kg/injection, schedule: Q01DX013 (ip), vehicle: saline",124 % of control
same,T/C,"dose: 1.5 mg/kg/injection, schedule: Q02DX005 (ip), vehicle: saline",122 % of control
same,T/C,"dose: 1.5 mg/kg/injection, schedule: Q02DX009 (ip), vehicle: carboxymethylcellulose (CMC)",162 % of control
same,T/C,"dose: 1.6 mg/kg/injection, schedule: Q01DX013 (ip), vehicle: saline",163 % of control
same,T/C,"dose: 2.0 mg/kg/injection, schedule: Q01DX001 (ip), vehicle: other",108 % of control
same,T/C,"dose: 2.0 mg/kg/injection, schedule: Q01DX001 (ip), vehicle: saline",116 % of control and 123 % of control
same,T/C,"dose: 2.0 mg/kg/injection, schedule: Q01DX005 (ip), vehicle: carboxymethylcellulose (CMC)",123 % of control
same,T/C,"dose: 2.0 mg/kg/injection, schedule: Q01DX006 (iv), vehicle: carboxymethylcellulose (CMC)",121 % of control
same,T/C,"dose: 2.0 mg/kg/injection, schedule: Q01DX009 (ip), vehicle: other",177 % of control
same,T/C,"dose: 2.0 mg/kg/injection, schedule: Q01DX009 (ip), vehicle: saline",166 % of control
same,T/C,"dose: 2.0 mg/kg/injection, schedule: Q01DX015 (im), vehicle: carboxymethylcellulose (CMC)",121 % of control
same,T/C,"dose: 2.0 mg/kg/injection, schedule: Q01DX015 (ip), vehicle: carboxymethylcellulose (CMC)",195 % of control
same,T/C,"dose: 2.0 mg/kg/injection, schedule: Q01DX015 (oral), vehicle: carboxymethylcellulose (CMC)",101 % of control
same,T/C,"dose: 2.0 mg/kg/injection, schedule: Q01DX015 (sc), vehicle: carboxymethylcellulose (CMC)",114 % of control
same,T/C,"dose: 2.0 mg/kg/injection, schedule: Q01DX017 (ip), vehicle: carboxymethylcellulose (CMC)",184 % of control
same,T/C,"dose: 2.0 mg/kg/injection, schedule: Q01DX Z (ip), vehicle: saline",106 % of control
same,T/C,"dose: 2.0 mg/kg/injection, schedule: Q02DX009 (ip), vehicle: carboxymethylcellulose (CMC)",192 % of control
same,T/C,"dose: 2.0 mg/kg/injection, schedule: Q## X002 (ip), vehicle: carboxymethylcellulose (CMC)",100 % of control
same,T/C,"dose: 2.0 mg/kg/injection, schedule: Q## X003 (ip), vehicle: carboxymethylcellulose (CMC)",113 % of control
same,T/C,"dose: 2.0 mg/kg/injection, schedule: Q## X005 (ip), vehicle: carboxymethylcellulose (CMC)",150 % of control
same,T/C,"dose: 2.0 mg/kg/injection, schedule: Q## X008 (ip), vehicle: carboxymethylcellulose (CMC)",97 % of control
same,T/C,"dose: 2.0 mg/kg/injection, schedule: Q## X016 (ip), vehicle: carboxymethylcellulose (CMC)",97 % of control
same,T/C,"dose: 2.0 mg/kg/injection, schedule: Q## X024 (ip), vehicle: carboxymethylcellulose (CMC)",103 % of control
same,T/C,"dose: 3.0 mg/kg/injection, schedule: Q01DX001 (ip), vehicle: carboxymethylcellulose (CMC)",115 % of control
same,T/C,"dose: 3.0 mg/kg/injection, schedule: Q01DX001 (ip), vehicle: saline",118 % of control
same,T/C,"dose: 3.0 mg/kg/injection, schedule: Q02DX009 (ip), vehicle: carboxymethylcellulose (CMC)",151 % of control
same,T/C,"dose: 3.0 mg/kg/injection, schedule: Q## X005 (ip), vehicle: carboxymethylcellulose (CMC)",152 % of control
same,T/C,"dose: 3.2 mg/kg/injection, schedule: Q01DX015 (ip), vehicle: carboxymethylcellulose (CMC)",163 % of control
same,T/C,"dose: 4.0 mg/kg/injection, schedule: Q01DX001 (ip), vehicle: other",97 % of control
same,T/C,"dose: 4.0 mg/kg/injection, schedule: Q01DX001 (ip), vehicle: saline",104 % of control
same,T/C,"dose: 4.0 mg/kg/injection, schedule: Q01DX006 (iv), vehicle: carboxymethylcellulose (CMC)",122 % of control
same,T/C,"dose: 4.0 mg/kg/injection, schedule: Q01DX009 (ip), vehicle: carboxymethylcellulose (CMC)",114 % of control
same,T/C,"dose: 4.0 mg/kg/injection, schedule: Q01DX009 (ip), vehicle: other",101 % of control
same,T/C,"dose: 4.0 mg/kg/injection, schedule: Q01DX015 (im), vehicle: carboxymethylcellulose (CMC)",94 % of control
same,T/C,"dose: 4.0 mg/kg/injection, schedule: Q01DX015 (oral), vehicle: carboxymethylcellulose (CMC)",104 % of control
same,T/C,"dose: 4.0 mg/kg/injection, schedule: Q01DX015 (sc), vehicle: carboxymethylcellulose (CMC)",115 % of control
same,T/C,"dose: 4.0 mg/kg/injection, schedule: Q02DX009 (ip), vehicle: carboxymethylcellulose (CMC)",259 % of control
same,T/C,"dose: 4.0 mg/kg/injection, schedule: Q## X002 (ip), vehicle: carboxymethylcellulose (CMC)",106 % of control
same,T/C,"dose: 4.0 mg/kg/injection, schedule: Q## X005 (ip), vehicle: carboxymethylcellulose (CMC)",170 % of control
same,T/C,"dose: 4.0 mg/kg/injection, schedule: Q## X008 (ip), vehicle: carboxymethylcellulose (CMC)",104 % of control
same,T/C,"dose: 4.0 mg/kg/injection, schedule: Q## X016 (ip), vehicle: carboxymethylcellulose (CMC)",97 % of control
same,T/C,"dose: 6.0 mg/kg/injection, schedule: Q02DX009 (ip), vehicle: carboxymethylcellulose (CMC)",113 % of control
same,T/C,"dose: 8.0 mg/kg/injection, schedule: Q01DX001 (ip), vehicle: carboxymethylcellulose (CMC)",98 % of control
same,T/C,"dose: 8.0 mg/kg/injection, schedule: Q01DX001 (ip), vehicle: other",101 % of control
same,T/C,"dose: 8.0 mg/kg/injection, schedule: Q01DX015 (oral), vehicle: carboxymethylcellulose (CMC)",97 % of control
same,T/C,"dose: 8.0 mg/kg/injection, schedule: Q## X002 (ip), vehicle: carboxymethylcellulose (CMC)",116 % of control
same,T/C,"dose: 16.0 mg/kg/injection, schedule: Q01DX015 (oral), vehicle: carboxymethylcellulose (CMC)",101 % of control
same,T/C,"dose: 32.0 mg/kg/injection, schedule: Q01DX015 (oral), vehicle: carboxymethylcellulose (CMC)",109 % of control
same,T/C,"dose: 62.5 micrograms/kg/injection, schedule: Q01DX Z (ip), vehicle: saline",108 % of control
same,T/C,"dose: 125.0 micrograms/kg/injection, schedule: Q01DX Z (ip), vehicle: saline",109 % of control
same,T/C,"dose: 250.0 micrograms/kg/injection, schedule: Q01DX Z (ip), vehicle: saline",114 % of control
